According to PMC3744530, “CTA095, a Novel Etk and Src Dual Inhibitor, Induces Apoptosis in Prostate Cancer Cells and Overcomes Resistance to Src Inhibitors” (PLoS ONE, 2013):
pIC50: −log10 of the molar value.

How the values were obtained:
[1] = target: T1, Btk (Homo sapiens, UniProt Q06187); test: Kinase inhibition assay (TLC; Kinase-Glo in Figure S2); type: biochemical
T1 construct: purchased Millipore Inc (Dundee, UK)
Experimental: (§1) Kinase inhibition was measured using thin-layer-chromatography (TLC). Briefly, purified kinases (20 nM), the corresponding substrate (500 µM, TSFYGRH for Etk, YIYGSFK for the other kinases), and CTA095 (0–10 µM) were incubated in a kinase reaction (100 mM Hepes, pH 7.4, 10 mM MnCl2, 10 mM MgCl2, 1 mM DTT) for 5 min, and the reaction was started by adding 5 μCi ^33P-labeled ATP. The reaction (10 µl) was incubated at room temperature for 1 h and was stopped by adding 10 μL H3PO4. The radioactivity of the peptide substrate was analyzed using TLC as previously described.
(§2) Having isolated a small molecule that inhibits Etk, the next logical step was to determine its specificity for this enzyme. To accomplish this, purified Etk, Btk, Src and Yes were incubated in a kinase reaction buffer with CTA095 (0–1 μM) in the presence of ^33P-labeled ATP and a peptide (YIYGSFK), previously shown to be an excellent substrate for both BTK and Src family kinases. The kinase activity was measured using TLC technique.
Supplementary file pone.0070910.s002.tif: Figure S2 Inhibition of Btk by CTA095. Purified Btk (20 nM), CTA095 (0–100 μM), ATP (500 μM) and the peptide substrate (YIYGSFK) were incubated in a kinase reaction. The kinase activity was measured using Kinase-Glo assay kit (Promega Inc.) following the manufacture's instruction. Columns, mean; bars, standard deviation, n = 3. […]

[2] = test system: Etk phosphorylation in PC3-Etk cells; test: Western blot of Etk phosphorylation in intact cells; type: cell-based, human; conditions: 5 μM and 10 μM, 24 h
Experimental: (§3) Western blotting was performed as described previously. Proteins were detected using the following antibodies: β-actin (Sigma-Aldrich, Saint Louis, MO), Etk (Santa Cruz Inc., Santa Cruz, CA), pEtk; Src, pSrc; Stat3, pStat3. For phospho-Etk, cells were pre-treated with 100 μM pervanadate for 15 min before harvest.
(§4) Figure 4 Inhibition of cell signaling in PC3 cells following treatment with CTA095. Cells were grown in 10 mm plate to 50% confluence and treated with CTA095. Cells were harvested after 24 h. pEtk, Etk, pSrc, Src, pStat3, Stat3, pAkt and Akt levels were measured using the corresponding antibodies by Western blot. One of three similar experiments depicted.

[3] = test system: STAT3 phosphorylation in PC3 cells; test: Western blot of STAT3 phosphorylation; type: cell-based, human; conditions: 24 h
Experimental: as §3, §4

[4] = test system: PC3-AZD20 cells; test: MTT cell viability in Src inhibitor resistant cells; type: cell-based, human; conditions: 72 h
Experimental: PC3 and PC3-AZD20 (PC3 cell resistant to 20 μM AZD0530, which is from AstraZeneca through MTA with Dr. Chris Evans) cells were seeded at 2000 cells/well in 96 well plates overnight. The cells were treated with AZD0530 or CTA095 at the indicated concentrations. Cell viability was measured using an MTT assay after 72 h.
Figure 11 CTA095 overcomes Src inhibitor resistance in prostate cancer cells. PC3 and PC3-AZD20 (PC3 cell resistant to 20 μM AZD0530) cells were seeded at 2000 cells/well in 96 well plates overnight. The cells were treated with AZD0530 or CTA095 at the indicated concentrations. Cell viability was measured using MTT assay after 72 h. Symbols, mean; bars, standard deviation, n = 3.

[5] = test system: Myc mRNA in PC3-AZD20 cells; test: Real-time PCR of Myc mRNA; type: cell-based, human; conditions: PC3-AZD20, 10 μM, RT-PCR
Experimental: PC3-AZD20 cells were seeded at 10^6 cells/well in 6 well plates overnight. The cells were treated with AZD0530 or CTA095 at 10 μM. Apoptosis was analyzed using Annexin-V FITC apoptosis detection kit. The mRNA levels of Myc and BCL2 were measured using real-time PCR. pEtk, Etk, pSrc, Src, pStat3, Stat3, Myc and BCL2 levels were measured using the corresponding antibodies through a Western blot.
Figure 12 CTA095 induces apoptosis in Src inhibitor resistant prostate cancer cells through Myc and BCL2 inhibition. PC3-AZD20 (PC3 cell resistant to 20 μM AZD0530) cells were seeded at 10^6 cells/well in 6 well plates overnight. The cells were treated with AZD0530 or CTA095 at 10 μM. Apoptosis was analyzed using Annexin-V FITC apoptosis detection kit (A). The mRNA levels of Myc and BCL2 were measured using real-time PCR (B). pEtk, Etk, pSrc, Src, pStat3, Stat3, Myc and BCL2 levels were measured using the corresponding antibodies through Western blot (C). Columns, mean; bars, standard deviation, n = 3.

[6] = test system: Akt phosphorylation in PC3 cells; test: Western blot of Akt phosphorylation; type: cell-based, human; conditions: 24 h
Experimental: as §3, §4

[7] = target: T2, Src (Homo sapiens, UniProt P12931); test: Kinase inhibition assay (TLC, 33P-ATP); type: biochemical
T2 construct: purchased Millipore Inc (Dundee, UK)
T2 sequence (P12931 whole entry): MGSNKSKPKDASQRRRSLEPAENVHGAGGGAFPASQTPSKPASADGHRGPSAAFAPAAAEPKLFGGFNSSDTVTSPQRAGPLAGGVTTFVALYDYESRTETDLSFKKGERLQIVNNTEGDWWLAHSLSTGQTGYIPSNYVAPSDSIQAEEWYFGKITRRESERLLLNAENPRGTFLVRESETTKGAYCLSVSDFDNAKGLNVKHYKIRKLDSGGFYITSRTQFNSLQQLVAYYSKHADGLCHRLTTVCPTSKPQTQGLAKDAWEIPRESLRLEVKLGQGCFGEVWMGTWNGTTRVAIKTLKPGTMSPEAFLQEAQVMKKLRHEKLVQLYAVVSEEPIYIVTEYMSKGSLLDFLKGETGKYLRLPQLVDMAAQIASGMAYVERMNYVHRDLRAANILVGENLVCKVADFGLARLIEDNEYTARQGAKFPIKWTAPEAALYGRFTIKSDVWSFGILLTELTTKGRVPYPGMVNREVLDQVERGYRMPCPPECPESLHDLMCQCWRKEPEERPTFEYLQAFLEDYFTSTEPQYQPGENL
Experimental: as §1, §2

[8] = target: T3, Yes (Homo sapiens, UniProt P07947); test: Kinase inhibition assay (TLC, 33P-ATP); type: biochemical
T3 construct: purchased Millipore Inc (Dundee, UK)
T3 sequence (P07947 whole entry): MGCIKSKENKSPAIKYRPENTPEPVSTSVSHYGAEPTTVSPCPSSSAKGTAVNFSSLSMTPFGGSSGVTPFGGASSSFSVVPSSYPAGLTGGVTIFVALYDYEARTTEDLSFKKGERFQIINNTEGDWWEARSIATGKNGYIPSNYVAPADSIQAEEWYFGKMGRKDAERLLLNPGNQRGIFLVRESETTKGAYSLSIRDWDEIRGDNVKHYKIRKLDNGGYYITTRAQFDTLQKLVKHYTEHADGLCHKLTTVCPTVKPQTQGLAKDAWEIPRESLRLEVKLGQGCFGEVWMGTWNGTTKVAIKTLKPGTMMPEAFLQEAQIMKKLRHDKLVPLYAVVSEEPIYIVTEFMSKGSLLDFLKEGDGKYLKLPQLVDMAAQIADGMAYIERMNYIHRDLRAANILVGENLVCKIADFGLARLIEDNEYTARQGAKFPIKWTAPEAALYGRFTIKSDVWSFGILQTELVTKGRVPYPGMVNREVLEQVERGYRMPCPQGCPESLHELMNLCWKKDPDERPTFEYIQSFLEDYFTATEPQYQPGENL
Experimental: as §1, §2

T1 sequence (Q06187 whole entry): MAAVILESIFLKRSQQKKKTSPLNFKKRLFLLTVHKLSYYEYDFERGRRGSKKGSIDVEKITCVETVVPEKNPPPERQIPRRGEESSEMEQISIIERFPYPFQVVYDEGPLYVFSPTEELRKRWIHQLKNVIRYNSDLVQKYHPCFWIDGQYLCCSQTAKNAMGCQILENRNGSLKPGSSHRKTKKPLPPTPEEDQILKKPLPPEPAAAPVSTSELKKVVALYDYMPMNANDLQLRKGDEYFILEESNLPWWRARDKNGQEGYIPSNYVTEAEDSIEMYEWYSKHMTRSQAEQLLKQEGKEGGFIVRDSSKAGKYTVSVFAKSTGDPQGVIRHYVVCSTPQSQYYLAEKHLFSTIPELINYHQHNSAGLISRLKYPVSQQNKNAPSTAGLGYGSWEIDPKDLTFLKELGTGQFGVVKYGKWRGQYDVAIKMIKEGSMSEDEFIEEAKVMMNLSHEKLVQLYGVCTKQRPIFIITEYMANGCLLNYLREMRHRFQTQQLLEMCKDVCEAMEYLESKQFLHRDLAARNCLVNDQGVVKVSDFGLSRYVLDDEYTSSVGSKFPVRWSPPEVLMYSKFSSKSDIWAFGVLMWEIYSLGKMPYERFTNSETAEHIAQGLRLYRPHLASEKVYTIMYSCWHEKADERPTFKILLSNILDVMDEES

O=c1[nH]c2cc3nc(-c4ccc5oc6ccccc6c5c4)n(CCCN4CCCCC4)c3cc2nc1-c1ccccc1 [CTA095, 2-(dibenzo[b,d]furan-2-yl)-7-phenyl-1-(3-(piperidin-1-yl)propyl)-1H-imidazo[4,5-g]quinoxalin-6(5H)-one]
pIC50 [1]: < 5.00
Etk phosphorylation [2]: significantly inhibited
STAT3 phosphorylation [3]: also inhibited
IC50 in PC3-AZD20 cells [4]: almost identical to that of the parental PC3 cells
cell viability / sensitivity of PC3-AZD20 cells [4]: highly sensitive
Myc mRNA level [5]: significantly down regulated
Akt phosphorylation [6]: inhibited
pIC50 ([7]; TLC assay): 6.92
pIC50 ([7]; TLC, peptide YIYGSFK, 33P-ATP): ~6.92
pIC50 [8]: < 5.00
